Broadly, the solubility (kinetic) is solubility judged after dilution from a stock solution rather than from solid.

Converted amounts (≈) assume the structure as drawn.

For this data set the following is noted: buffer; pH 7.4; 200.0 µM.
Regarding `COC(=O)c1sccc1-n1cc(C#N)c(=O)n(C)c1=O`, the kinetic solubility was > 43.7 µg/mL. On to `CC1Oc2ccccc2N(CC(=O)NC2CCCCC2)C1=O` (centres undefined), for which the solubility (kinetic) is > 45.4 µg/mL. For `CCc1nc(SCC(=O)O)c(C#N)c2c1CCCC2`, the solubility (kinetic) is > 41.5 µg/mL. Turning to `COC(=O)c1cn(Cc2ccc(C(F)(F)F)cc2)cc(F)c1=O`, the kinetic solubility is > 49.4 µg/mL. For `Cc1nn(C)c2ncc(C(N)=O)c(Oc3cccnc3)c12`, the solubility (kinetic) was > 42.5 µg/mL. Then `Cc1ccc2oc(=O)cc(CN3CC(C)OC(C)C3)c2c1` (centres undefined), with > 43.1 µg/mL; and `CC(=O)OCc1c(C)cc(C)c(/C=C(/C#N)C(N)=O)c1C`, with > 42.9 µg/mL; and `CN(C)c1ccc(C=NCCc2ccc(S(N)(=O)=O)cc2)cc1`, with 37.1 µg/mL (≈ 112 µM). To `NC(N)=Nc1nc(-c2ccccc2)c2cc(F)ccc2n1` belongs > 42.2 µg/mL.

As to `CN(C(=O)CSc1nncn1-c1ccccc1)c1ccccc1`, the solubility (kinetic) is > 48.7 µg/mL. Then `O=[N+]([O-])c1ccc2c(c1)[nH]c(=S)n2-c1ccccc1`, with 2 µg/mL (≈ 7.37 µM); and `O=C(COc1ccc(Cl)cc1)NCc1ccncc1`, with > 41.5 µg/mL; and `CCC(=O)Nc1cccc(C(=O)N(Cc2ccccc2)Cc2ccccc2)c1`, with 22.2 µg/mL (≈ 59.6 µM). Then `Cc1c(C)n(CCc2c[nH]c3ccccc23)ccc1=O`, with 38.5 µg/mL (≈ 145 µM); and `CN1CCN(C(=O)OC2c3nccnc3C(=O)N2c2ccc(Cl)cn2)CC1` (centres undefined), with > 58.3 µg/mL. For the compound `O=S(=O)(Cc1ccc(Cl)cc1)N1CCCCCC1`, the kinetic solubility turned out to be 4.5 µg/mL (≈ 15.6 µM).

Regarding `Cc1ccnc(NC(=O)CCNC(=O)c2ccc(Cl)cc2)c1`, the solubility (kinetic) was found to be 14.9 µg/mL (≈ 46.9 µM).

As for `Cc1cc(-n2c(C)cc(C(=O)CN3C(=O)C(=O)N(C)C3=O)c2C)no1`, the solubility (kinetic) was > 51.6 µg/mL. Turning to `COc1ccc(C(C)(C)C)cc1NC(=O)CCN1C(=O)NC(C)(C)C1=O`, the kinetic solubility was 52.7 µg/mL (≈ 146 µM). On to `CCC(C)Oc1ccc(C(=O)Nc2ccc(CN3CCOCC3)cc2)cc1` (centres undefined), for which the solubility (kinetic) came to 54.1 µg/mL (≈ 147 µM). Regarding `COc1cccc(C(=S)N2CCOCC2)c1OS(=O)(=O)c1ccc(Cl)cc1`, the kinetic solubility came to 3.3 µg/mL (≈ 7.71 µM). On to `Cc1ccnc(SC2CC(=O)N(c3ccc([N+](=O)[O-])cc3)C2=O)n1` (centres undefined), for which the kinetic solubility is > 51.7 µg/mL. In turn, `Cc1csc(NC(=O)CCCc2cccs2)n1` gave a kinetic solubility of 28.2 µg/mL (≈ 106 µM). `COc1ccc(NC2=NC(C)(C)CS2)cc1` came in with a kinetic solubility of 31.4 µg/mL (≈ 133 µM). On to `COc1ccc(OCC(=O)c2c[nH]c3ccccc23)cc1`, for which the kinetic solubility is < 0.6 µg/mL. As for `COCc1cc(=O)[nH]c(SC)n1`, the kinetic solubility is > 27.9 µg/mL. For `CC1CCCCC1NC(=O)COc1ncnc2sccc12` (centres undefined), the solubility (kinetic) is > 45.8 µg/mL. Take `O=C(O)c1cccc(S(=O)(=O)N2CCN(c3ccccn3)CC2)c1`: the solubility (kinetic) is > 52.1 µg/mL. Then `O=C(NNC(=O)c1cccnc1Cl)c1ccc(F)cc1`, with > 44.1 µg/mL. For `Cn1ccnc1SC(C(=O)O)c1ccccc1` (centres undefined), the kinetic solubility is > 37.2 µg/mL. Consider `CN(Cc1ccccc1)C(=O)COC(=O)c1cc2ccccc2oc1=O`, for which the kinetic solubility is > 52.7 µg/mL. On to `Cc1ccc(O)c(CNc2cnc3ccccc3c2)c1`, for which the kinetic solubility stood at 18.1 µg/mL (≈ 68.5 µM).

As for `CCOc1ccccc1/C=N/OCC(=O)NCc1ccc(F)cc1`, the kinetic solubility came out at 32.9 µg/mL (≈ 99.6 µM). Turning to `CN(C)c1cccc2c1c(NS(=O)(=O)c1cn(C)cn1)nn2C`, the kinetic solubility is > 50.2 µg/mL.

`COc1ccc(C(=O)/C=C/NCc2ccc(F)cc2)cc1OC`: the kinetic solubility was > 47.3 µg/mL. `c1ccc2c(c1)NCC1CCCN21` (centres undefined) had a kinetic solubility of 12.7 µg/mL (≈ 72.9 µM). For `CCC(=O)NCCc1nc2cc(NC(=O)Nc3ccccc3)ccc2n1C`, the solubility (kinetic) was > 54.8 µg/mL. Regarding `CN(C)C1(CNC(=O)Nc2ccccc2)CCCCC1`, the kinetic solubility was > 41.3 µg/mL. In the case of `CCOc1ccccc1NC(=O)N1CCc2ccccc2C1`, the solubility (kinetic) is 33.1 µg/mL (≈ 112 µM).

As to `Cc1ccc(-c2cc(C(=O)NCC(c3ccccc3)N(C)C)c3ccccc3n2)o1` (centres undefined), the kinetic solubility was 31.1 µg/mL (≈ 77.8 µM). As for `Cn1cc(CCCC(=O)NCc2ccccc2)c2ccccc21`, the kinetic solubility was determined as 29.2 µg/mL (≈ 95.3 µM). For the compound `Cc1cccc(NC(=O)CCCCC(=O)Nc2cccc(C)c2)c1`, the solubility (kinetic) is < 0.3 µg/mL. On to `COc1ccc(OC)c(S(=O)(=O)NCc2ccccn2)c1`, for which the kinetic solubility was > 46.3 µg/mL. Take `CCOC(=O)c1sc(=NC(=O)c2c(F)cccc2F)n(C)c1C`: the solubility (kinetic) was 0.9 µg/mL (≈ 2.64 µM). Turning to `Cc1cc(C)c2c(c1)C1(OCCO1)C(=O)N2`, the solubility (kinetic) amounted to 16.1 µg/mL (≈ 73.4 µM).

In the case of `CC1CCCC(NC(=O)CCCn2c(=S)[nH]c3ccccc3c2=O)C1C` (centres undefined), the solubility (kinetic) is < 0.3 µg/mL.

As to `Cc1ccc(CONC(=O)c2ccc(OC(F)F)cc2)cc1`, the solubility (kinetic) was found to be 9.5 µg/mL (≈ 30.9 µM). With `CSc1ncc(C(=O)Nc2cccc(Cl)c2)c(C)n1`, the kinetic solubility was > 44.1 µg/mL.

Take `COc1cccc(C2Nc3cccc4cccc(c34)N2)c1`: the solubility (kinetic) is 11.5 µg/mL (≈ 41.6 µM). The compound `CN(Cc1c(F)cccc1Cl)C(=O)CCc1c[nH]c2ccccc12` returned a solubility (kinetic) of 11.9 µg/mL (≈ 34.5 µM). To `CN(C(=O)CSc1ncnc2sc3c(c12)CCCC3)C1CCS(=O)(=O)C1` (centres undefined) belongs > 61.7 µg/mL; to `O=S(=O)(Nc1cccnc1)c1ccc(F)cc1`, > 37.8 µg/mL; to `COC(=O)CN1C(=O)Nc2ccc(Cl)cc2C1c1ccccc1` (centres undefined), 2.1 µg/mL (≈ 6.35 µM). `O=C(CNC(=O)[C@@H]1Cc2ccccc2CN1)NC1CCCCC1`: the kinetic solubility is > 47.3 µg/mL.

As to `COc1ccccc1C(=O)c1nc2ccccc2n1C`, the kinetic solubility stood at 19.7 µg/mL (≈ 74 µM).

Regarding `COc1ccc(Cl)cc1S(=O)(=O)NC(C)C(=O)NCc1ccccn1` (centres undefined), the kinetic solubility amounted to 52.8 µg/mL (≈ 138 µM). For the compound `Cc1ccc(S(=O)(=O)NC(=S)c2ccccc2)cc1`, the kinetic solubility was > 43.7 µg/mL. Turning to `COc1ccc(CCNC(=O)Cc2ccc([N+](=O)[O-])cc2)cc1OC`, the solubility (kinetic) is 51.3 µg/mL (≈ 149 µM). `O=C(NC12CC3CC(CC(C3)C1)C2)c1cccc([N+](=O)[O-])c1` returned a solubility (kinetic) of 7.3 µg/mL (≈ 24.3 µM). For the compound `Cc1ccc(N2C(=O)C3CCCN3C2=S)c(C)c1` (centres undefined), the kinetic solubility was > 39.1 µg/mL.

As for `O=C(NCCCc1ccccc1)N1CCOCC1`, the kinetic solubility is > 37.2 µg/mL. Turning to `CC(=O)N1CCN(CC(O)Cn2c3ccccc3c3ccccc32)CC1` (centres undefined), the kinetic solubility is > 52.7 µg/mL. Regarding `CC(=O)NC(c1ccccc1)c1cc(Cl)c2cccnc2c1O` (centres undefined), the kinetic solubility worked out at 0.4 µg/mL (≈ 1.22 µM). On to `Cc1cc(NC(=O)c2ccc3c(c2)C(=O)N(CC(C)C)C3=O)no1`, for which the solubility (kinetic) worked out at 2.1 µg/mL (≈ 6.42 µM). `COc1ccc(CC(=O)Nc2cc(C)ccn2)cc1OC` showed a solubility (kinetic) of 27.7 µg/mL (≈ 96.7 µM). Turning to `COc1ccc([N+](=O)[O-])cc1N1C(=O)c2cccnc2C1=O`, the kinetic solubility is > 44.9 µg/mL. On to `COc1ccc(C(=O)CN2CCN(c3cc(C)nc4ccccc34)CC2)cc1`, for which the kinetic solubility came out at 45.9 µg/mL (≈ 122 µM). To `CCOC(=O)CCCC(=O)N1CCOCCOCCOCC1` belongs > 47.6 µg/mL; to `O=C(COC(=O)c1cccc(N2C(=O)C3CC=CCC3C2=O)c1)c1ccccc1` (centres undefined), 3.2 µg/mL (≈ 8.22 µM). Take `Cl.O=[N+]([O-])c1cc(S(=O)(=O)CCCN2CCOCC2)ccc1F`: the kinetic solubility was > 55.3 µg/mL.

Turning to `O=C(NC1CC1)c1cc2cc(Br)ccc2s1`, the kinetic solubility was < 0.6 µg/mL. Then `CCCCn1c(N)c(N(CCC(C)C)C(=O)COC(=O)c2ccc([N+](=O)[O-])s2)c(=O)[nH]c1=O`, with 25.1 µg/mL (≈ 52.1 µM); and `Nc1cc(Cl)ccc1N1CCCCC1`, with 0.6 µg/mL (≈ 2.85 µM); and `Cc1ccc2c(c1)C(O)(CC(=O)c1cccc(-n3cccc3)c1)C(=O)N2` (centres undefined), with 7.2 µg/mL (≈ 20.8 µM).

(Values after PubChem BioAssay AID1996.)
